Results from doi:10.1101/2024.08.19.608619, “Discovery of potent SARS-CoV-2 nsp3 macrodomain inhibitors uncovers lack of translation to cellular antiviral response” (bioRxiv, 2024).
Read-outs that look alike come from different tables or passages of the source.

What was measured:
Assay in all cases: biochemical
Parameters in all cases: In vitro kinase panel profiling, per cent remaining kinase activity at 10 uM
[1] = biological target: T1, GSK3β(h) (Homo sapiens, UniProt P49841); details: atp_concentration=15, read-out: % of control remaining
T1 construct: gene GSK3B
Description: (§1) We derisk potential for off-target activity by profiling the compound in a CEREP panel, a standard secondary pharmacology assessment, as well as a kinase panel to derisk a potential hinge-binding motif in our leads, and a PARP panel to derisk activity against human […]. Reassuringly, the compounds are selective, with the only off-targets being moderate human CHRM2 and KOR receptors activity associated with ASAP-0011198.

[2] = biological target: T2, PI3 Kinase (p110α/p85α)(h) (Homo sapiens, UniProt P42336); details: atp_concentration=200, read-out: % of control remaining
T2 construct: gene PIK3CA
Description: as §1

[3] = biological target: mTOR(h) (Homo sapiens, UniProt P42345); details: atp_concentration=70, read-out: % of control remaining
Description: as §1

[4] = biological target: T3, PI3 Kinase (p110δ/p85α)(h) (Homo sapiens, UniProt O00329); details: atp_concentration=200, read-out: % of control remaining
T3 construct: gene PIK3CD
Description: as §1

[5] = biological target: T4, ROCK-I(h) (Homo sapiens, UniProt Q13464); details: atp_concentration=70, read-out: % of control remaining
T4 construct: gene ROCK1
Description: as §1

[6] = biological target: Lyn(h) (Homo sapiens, UniProt P07948); details: atp_concentration=70, read-out: % of control remaining
Description: as §1

[7] = biological target: T5, SAPK2a(h) (Homo sapiens, UniProt Q16539); details: atp_concentration=90, read-out: % of control remaining
T5 construct: gene MAPK14
Description: as §1

[8] = biological target: T6, PKG1α(h) (Homo sapiens, UniProt Q13976); details: atp_concentration=90, read-out: % of control remaining
T6 construct: gene PRKG1; isoform alpha
T6 sequence (Q13976 1-671): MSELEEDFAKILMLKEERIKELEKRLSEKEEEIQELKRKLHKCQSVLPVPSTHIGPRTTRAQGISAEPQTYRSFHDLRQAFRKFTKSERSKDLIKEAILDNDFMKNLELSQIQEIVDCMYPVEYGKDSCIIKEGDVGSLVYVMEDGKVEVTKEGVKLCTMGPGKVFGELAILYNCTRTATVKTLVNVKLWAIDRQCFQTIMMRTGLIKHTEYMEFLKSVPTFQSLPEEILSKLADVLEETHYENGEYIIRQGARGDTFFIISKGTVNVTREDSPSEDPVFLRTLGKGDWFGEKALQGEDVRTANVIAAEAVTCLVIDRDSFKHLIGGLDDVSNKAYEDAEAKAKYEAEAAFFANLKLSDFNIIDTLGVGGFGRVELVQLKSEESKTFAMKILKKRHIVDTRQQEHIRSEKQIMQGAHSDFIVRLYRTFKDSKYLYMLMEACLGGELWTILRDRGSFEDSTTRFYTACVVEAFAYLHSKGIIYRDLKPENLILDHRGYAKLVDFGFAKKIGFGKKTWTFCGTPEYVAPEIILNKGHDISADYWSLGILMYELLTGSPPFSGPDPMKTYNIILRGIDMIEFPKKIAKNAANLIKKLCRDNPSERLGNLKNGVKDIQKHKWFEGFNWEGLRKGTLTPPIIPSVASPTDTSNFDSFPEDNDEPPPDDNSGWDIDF
Description: as §1

[9] = biological target: Plk3(h) (Homo sapiens, UniProt Q9H4B4); details: atp_concentration=70, read-out: % of control remaining
Description: as §1

[10] = biological target: T7, CK1γ1(h) (Homo sapiens, UniProt Q9HCP0); details: atp_concentration=15, read-out: % of control remaining
T7 construct: gene CSNK1G1
Description: as §1

[11] = biological target: SRPK1(h) (Homo sapiens, UniProt Q96SB4); details: atp_concentration=10, read-out: % of control remaining
Description: as §1

[12] = biological target: T8, MST1(h) (Homo sapiens, UniProt Q13043); details: atp_concentration=90, read-out: % of control remaining
T8 construct: gene STK4
T8 sequence (Q13043 1-487): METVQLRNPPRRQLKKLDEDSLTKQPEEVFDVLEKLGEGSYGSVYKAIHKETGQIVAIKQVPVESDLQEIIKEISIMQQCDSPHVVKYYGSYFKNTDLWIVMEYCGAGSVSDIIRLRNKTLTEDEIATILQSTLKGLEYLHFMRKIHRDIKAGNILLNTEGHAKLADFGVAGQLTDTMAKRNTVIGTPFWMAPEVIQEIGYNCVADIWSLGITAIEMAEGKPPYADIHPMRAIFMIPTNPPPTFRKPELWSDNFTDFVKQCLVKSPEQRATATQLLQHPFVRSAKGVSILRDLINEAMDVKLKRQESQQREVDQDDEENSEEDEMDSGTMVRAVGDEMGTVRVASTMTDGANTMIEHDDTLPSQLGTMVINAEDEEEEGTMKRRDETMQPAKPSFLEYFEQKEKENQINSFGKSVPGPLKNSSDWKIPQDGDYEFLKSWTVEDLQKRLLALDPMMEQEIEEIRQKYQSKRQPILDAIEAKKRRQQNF
Description: as §1

[13] = biological target: T9, c-RAF(h) (Homo sapiens, UniProt P04049); details: atp_concentration=120, read-out: % of control remaining
T9 construct: gene RAF1
Description: as §1

Chain of SRPK1(h) (Q96SB4 whole entry): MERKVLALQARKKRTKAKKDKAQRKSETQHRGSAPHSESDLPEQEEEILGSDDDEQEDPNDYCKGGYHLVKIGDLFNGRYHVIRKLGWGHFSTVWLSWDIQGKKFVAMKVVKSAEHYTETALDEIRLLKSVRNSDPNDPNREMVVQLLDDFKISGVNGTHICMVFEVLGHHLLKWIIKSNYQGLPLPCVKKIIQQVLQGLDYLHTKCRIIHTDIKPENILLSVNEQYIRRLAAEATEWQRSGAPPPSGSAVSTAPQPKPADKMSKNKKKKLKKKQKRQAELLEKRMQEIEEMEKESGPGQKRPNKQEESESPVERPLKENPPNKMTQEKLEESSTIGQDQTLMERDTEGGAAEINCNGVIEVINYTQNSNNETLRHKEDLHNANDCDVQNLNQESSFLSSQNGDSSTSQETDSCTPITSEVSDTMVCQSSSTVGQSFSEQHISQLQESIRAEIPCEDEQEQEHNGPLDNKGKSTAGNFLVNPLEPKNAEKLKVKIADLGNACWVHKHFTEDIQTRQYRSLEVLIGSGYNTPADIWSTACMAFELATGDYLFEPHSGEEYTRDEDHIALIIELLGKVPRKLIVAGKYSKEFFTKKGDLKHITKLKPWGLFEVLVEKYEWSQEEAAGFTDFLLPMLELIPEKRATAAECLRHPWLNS
T4 sequence (Q13464 whole entry): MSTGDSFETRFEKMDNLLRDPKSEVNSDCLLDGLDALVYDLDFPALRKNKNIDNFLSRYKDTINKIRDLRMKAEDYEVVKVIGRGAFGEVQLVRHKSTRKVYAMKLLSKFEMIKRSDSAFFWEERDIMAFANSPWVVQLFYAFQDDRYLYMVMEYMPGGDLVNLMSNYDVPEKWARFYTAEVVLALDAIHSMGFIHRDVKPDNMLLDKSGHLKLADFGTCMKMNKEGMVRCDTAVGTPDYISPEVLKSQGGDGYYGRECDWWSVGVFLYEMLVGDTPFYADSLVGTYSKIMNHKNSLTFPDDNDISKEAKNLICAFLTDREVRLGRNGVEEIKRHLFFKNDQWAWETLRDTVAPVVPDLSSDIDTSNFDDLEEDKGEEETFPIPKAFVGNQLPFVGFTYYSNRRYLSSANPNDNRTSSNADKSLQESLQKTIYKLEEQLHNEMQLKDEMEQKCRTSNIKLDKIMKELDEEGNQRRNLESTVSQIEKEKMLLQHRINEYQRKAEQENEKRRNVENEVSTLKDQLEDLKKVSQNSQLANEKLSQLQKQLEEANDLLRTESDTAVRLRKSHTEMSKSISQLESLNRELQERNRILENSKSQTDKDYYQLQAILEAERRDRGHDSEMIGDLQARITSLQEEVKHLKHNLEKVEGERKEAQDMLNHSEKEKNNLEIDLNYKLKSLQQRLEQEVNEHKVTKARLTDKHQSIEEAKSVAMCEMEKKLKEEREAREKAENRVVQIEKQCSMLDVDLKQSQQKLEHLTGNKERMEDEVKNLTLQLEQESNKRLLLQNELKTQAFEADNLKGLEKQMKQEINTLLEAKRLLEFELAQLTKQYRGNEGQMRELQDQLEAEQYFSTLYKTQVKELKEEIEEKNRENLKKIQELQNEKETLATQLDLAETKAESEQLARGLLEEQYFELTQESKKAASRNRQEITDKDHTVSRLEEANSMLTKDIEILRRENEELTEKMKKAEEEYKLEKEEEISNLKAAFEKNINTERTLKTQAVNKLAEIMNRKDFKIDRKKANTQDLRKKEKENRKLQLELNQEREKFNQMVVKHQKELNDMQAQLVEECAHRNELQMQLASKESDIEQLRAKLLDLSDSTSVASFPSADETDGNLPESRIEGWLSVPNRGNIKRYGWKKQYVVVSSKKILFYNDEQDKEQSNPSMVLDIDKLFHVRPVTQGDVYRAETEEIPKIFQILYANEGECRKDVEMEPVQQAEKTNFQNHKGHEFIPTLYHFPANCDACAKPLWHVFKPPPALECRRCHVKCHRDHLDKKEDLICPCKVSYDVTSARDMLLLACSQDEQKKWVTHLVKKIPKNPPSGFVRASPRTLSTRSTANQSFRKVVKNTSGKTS
Chain of Lyn(h) (P07948 whole entry): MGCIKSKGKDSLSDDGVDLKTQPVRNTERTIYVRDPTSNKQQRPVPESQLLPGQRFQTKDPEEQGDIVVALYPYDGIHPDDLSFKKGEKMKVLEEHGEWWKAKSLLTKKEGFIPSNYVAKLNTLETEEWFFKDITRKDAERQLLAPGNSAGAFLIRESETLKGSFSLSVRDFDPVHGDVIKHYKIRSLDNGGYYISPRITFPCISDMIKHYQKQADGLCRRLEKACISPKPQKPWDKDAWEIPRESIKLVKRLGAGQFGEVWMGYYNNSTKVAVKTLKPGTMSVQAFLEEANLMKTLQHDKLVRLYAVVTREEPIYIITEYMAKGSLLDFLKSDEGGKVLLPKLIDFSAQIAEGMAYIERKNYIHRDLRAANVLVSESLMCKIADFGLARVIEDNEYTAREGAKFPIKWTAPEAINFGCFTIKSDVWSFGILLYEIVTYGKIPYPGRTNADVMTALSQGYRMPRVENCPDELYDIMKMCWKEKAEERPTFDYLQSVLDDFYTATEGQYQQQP
T1 sequence (P49841 whole entry): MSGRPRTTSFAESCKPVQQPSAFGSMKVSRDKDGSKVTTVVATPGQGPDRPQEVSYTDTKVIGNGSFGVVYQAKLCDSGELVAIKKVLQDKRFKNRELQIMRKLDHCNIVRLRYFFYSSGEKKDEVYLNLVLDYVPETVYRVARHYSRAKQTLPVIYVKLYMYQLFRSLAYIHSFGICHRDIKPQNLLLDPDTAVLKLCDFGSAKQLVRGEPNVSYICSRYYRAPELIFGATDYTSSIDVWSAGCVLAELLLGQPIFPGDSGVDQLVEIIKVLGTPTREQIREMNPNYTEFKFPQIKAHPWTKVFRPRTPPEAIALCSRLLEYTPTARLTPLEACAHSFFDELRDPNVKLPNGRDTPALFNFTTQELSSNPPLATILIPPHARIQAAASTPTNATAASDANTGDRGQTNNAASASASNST
T3 sequence (O00329 whole entry): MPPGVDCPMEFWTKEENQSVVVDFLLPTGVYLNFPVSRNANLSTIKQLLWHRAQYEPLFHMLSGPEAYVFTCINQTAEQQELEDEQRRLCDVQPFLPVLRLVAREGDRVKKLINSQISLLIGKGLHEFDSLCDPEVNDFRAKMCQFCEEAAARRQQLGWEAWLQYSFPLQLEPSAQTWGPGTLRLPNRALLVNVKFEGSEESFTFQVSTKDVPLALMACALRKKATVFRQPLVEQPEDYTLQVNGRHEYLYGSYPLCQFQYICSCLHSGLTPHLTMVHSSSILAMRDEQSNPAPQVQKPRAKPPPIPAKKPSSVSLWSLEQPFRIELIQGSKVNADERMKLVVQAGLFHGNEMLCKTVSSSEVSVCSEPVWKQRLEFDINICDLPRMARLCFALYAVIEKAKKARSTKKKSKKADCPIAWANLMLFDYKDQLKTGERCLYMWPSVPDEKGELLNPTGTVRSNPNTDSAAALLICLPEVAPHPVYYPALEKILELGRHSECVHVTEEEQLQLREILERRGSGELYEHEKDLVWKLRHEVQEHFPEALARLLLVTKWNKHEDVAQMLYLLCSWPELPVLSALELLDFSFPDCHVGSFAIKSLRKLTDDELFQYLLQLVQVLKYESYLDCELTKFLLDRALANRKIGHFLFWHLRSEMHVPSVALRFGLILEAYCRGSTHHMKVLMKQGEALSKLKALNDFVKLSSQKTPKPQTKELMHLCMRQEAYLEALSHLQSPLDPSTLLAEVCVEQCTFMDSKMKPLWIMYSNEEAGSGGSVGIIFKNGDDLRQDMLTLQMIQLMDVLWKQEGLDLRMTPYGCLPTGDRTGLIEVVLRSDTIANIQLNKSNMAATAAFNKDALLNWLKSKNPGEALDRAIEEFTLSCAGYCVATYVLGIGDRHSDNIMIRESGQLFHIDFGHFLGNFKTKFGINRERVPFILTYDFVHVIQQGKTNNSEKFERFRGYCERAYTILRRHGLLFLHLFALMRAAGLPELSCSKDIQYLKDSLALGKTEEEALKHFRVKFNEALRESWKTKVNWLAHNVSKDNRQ
T3 sequence (P27986 whole entry partner): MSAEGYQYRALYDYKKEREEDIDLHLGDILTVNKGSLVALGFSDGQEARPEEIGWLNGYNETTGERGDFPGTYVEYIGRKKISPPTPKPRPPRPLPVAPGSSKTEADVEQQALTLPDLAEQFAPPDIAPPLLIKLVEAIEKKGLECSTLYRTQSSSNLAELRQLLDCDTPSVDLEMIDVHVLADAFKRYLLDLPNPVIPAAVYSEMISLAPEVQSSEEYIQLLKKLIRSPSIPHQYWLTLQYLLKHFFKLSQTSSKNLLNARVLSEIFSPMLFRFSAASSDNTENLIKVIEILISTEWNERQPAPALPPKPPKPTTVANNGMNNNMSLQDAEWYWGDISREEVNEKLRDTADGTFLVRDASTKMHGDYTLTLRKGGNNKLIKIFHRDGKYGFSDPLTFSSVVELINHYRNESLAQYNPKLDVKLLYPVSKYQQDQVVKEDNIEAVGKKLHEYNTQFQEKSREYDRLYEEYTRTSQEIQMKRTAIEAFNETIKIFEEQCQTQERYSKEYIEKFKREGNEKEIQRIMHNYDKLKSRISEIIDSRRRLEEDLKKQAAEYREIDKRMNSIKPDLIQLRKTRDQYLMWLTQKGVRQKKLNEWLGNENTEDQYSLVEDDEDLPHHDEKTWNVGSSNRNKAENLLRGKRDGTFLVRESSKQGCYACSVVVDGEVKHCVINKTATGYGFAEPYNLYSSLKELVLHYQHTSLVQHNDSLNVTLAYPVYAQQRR
T5 sequence (Q16539 whole entry): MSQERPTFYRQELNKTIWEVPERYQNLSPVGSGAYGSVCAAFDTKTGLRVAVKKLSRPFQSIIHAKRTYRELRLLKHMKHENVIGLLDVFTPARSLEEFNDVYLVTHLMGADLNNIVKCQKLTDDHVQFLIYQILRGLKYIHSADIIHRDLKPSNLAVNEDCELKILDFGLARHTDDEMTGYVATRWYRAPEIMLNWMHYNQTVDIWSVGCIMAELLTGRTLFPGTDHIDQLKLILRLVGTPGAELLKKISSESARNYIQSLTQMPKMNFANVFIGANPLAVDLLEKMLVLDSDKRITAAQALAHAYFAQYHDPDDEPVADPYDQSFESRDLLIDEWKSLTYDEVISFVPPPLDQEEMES

Molecule `CC(C)C(Nc1ncnc2[nH]ccc12)c1ccc2c(c1)S(=O)(=O)CCC2` (stereo not drawn) [ASAP-0008327] has a remaining activity at 10 µM ([1]; batch_name=ASAP-0008327-001) of 107%, a remaining activity at 10 µM ([2]; batch_name=ASAP-0008327-001) of 104% and a remaining activity at 10 µM ([3]; batch_name=ASAP-0008327-001) of 102%. It also gave a remaining activity at 10 µM ([4]; batch_name=ASAP-0008327-001) of 101%, a remaining activity at 10 µM ([5]; batch_name=ASAP-0008327-001) of 110% and a remaining activity at 10 µM ([6]; batch_name=ASAP-0008327-001) of 112%. For the same molecule, the remaining activity at 10 µM ([7]; batch_name=ASAP-0008327-001) was 108%, the remaining activity at 10 µM ([8]; batch_name=ASAP-0008327-001) was 88% and the remaining activity at 10 µM ([9]; batch_name=ASAP-0008327-001) was 103%. The remaining activity at 10 µM ([10]; batch_name=ASAP-0008327-001) was 102%, the remaining activity at 10 µM ([11]; batch_name=ASAP-0008327-001) was 105% and the remaining activity at 10 µM ([12]; batch_name=ASAP-0008327-001) was 88%. It also gave a remaining activity at 10 µM ([13]; batch_name=ASAP-0008327-001) of 97%.
`COc1ccc([C@@H](Cc2nnn[nH]2)NC(=O)c2ncnc3[nH]ccc23)cc1` [ASAP-0008340] showed a remaining activity at 10 µM ([1]; batch_name=ASAP-0008340-001) of 105%, a remaining activity at 10 µM ([2]; batch_name=ASAP-0008340-001) of 101% and a remaining activity at 10 µM ([3]; batch_name=ASAP-0008340-001) of 95%. It also gave a remaining activity at 10 µM ([4]; batch_name=ASAP-0008340-001) of 99%, a remaining activity at 10 µM ([5]; batch_name=ASAP-0008340-001) of 93% and a remaining activity at 10 µM ([6]; batch_name=ASAP-0008340-001) of 111%. The remaining activity at 10 µM ([7]; batch_name=ASAP-0008340-001) was 100%, the remaining activity at 10 µM ([8]; batch_name=ASAP-0008340-001) was 95% and the remaining activity at 10 µM ([9]; batch_name=ASAP-0008340-001) was 102%. The remaining activity at 10 µM ([10]; batch_name=ASAP-0008340-001) was 95%, the remaining activity at 10 µM ([11]; batch_name=ASAP-0008340-001) was 102% and the remaining activity at 10 µM ([12]; batch_name=ASAP-0008340-001) was 98%. It also gave a remaining activity at 10 µM ([13]; batch_name=ASAP-0008340-001) of 90%.
`CC(C)[C@@H](Nc1ncnc2[nH]c(-c3cnn(C)c3C#N)cc12)c1ccc2c(n1)OCCO2` [ASAP-0008418] was tested, and the remaining activity at 10 µM ([1]; batch_name=ASAP-0008418-001) was 85%, the remaining activity at 10 µM ([2]; batch_name=ASAP-0008418-001) was 49% and the remaining activity at 10 µM ([3]; batch_name=ASAP-0008418-001) was 83%. For the same molecule, the remaining activity at 10 µM ([4]; batch_name=ASAP-0008418-001) was 55%, the remaining activity at 10 µM ([5]; batch_name=ASAP-0008418-001) was 93% and the remaining activity at 10 µM ([6]; batch_name=ASAP-0008418-001) was 61%. For the same molecule, the remaining activity at 10 µM ([7]; batch_name=ASAP-0008418-001) was 103%, the remaining activity at 10 µM ([8]; batch_name=ASAP-0008418-001) was 100% and the remaining activity at 10 µM ([9]; batch_name=ASAP-0008418-001) was 90%. For the same molecule, the remaining activity at 10 µM ([10]; batch_name=ASAP-0008418-001) was 87%, the remaining activity at 10 µM ([11]; batch_name=ASAP-0008418-001) was 92% and the remaining activity at 10 µM ([12]; batch_name=ASAP-0008418-001) was 103%. The remaining activity at 10 µM ([13]; batch_name=ASAP-0008418-001) was 81%.
`CC(C)[C@H](Nc1ncnc2[nH]ccc12)c1ccc2c(c1)S(=O)(=O)CCC2` [ASAP-0008674] was tested, and the remaining activity at 10 µM ([1]; batch_name=ASAP-0008674-002) was 94%, the remaining activity at 10 µM ([2]; batch_name=ASAP-0008674-002) was 94% and the remaining activity at 10 µM ([3]; batch_name=ASAP-0008674-002) was 99%. It also gave a remaining activity at 10 µM ([4]; batch_name=ASAP-0008674-002) of 99%, a remaining activity at 10 µM ([5]; batch_name=ASAP-0008674-002) of 115% and a remaining activity at 10 µM ([6]; batch_name=ASAP-0008674-002) of 104%. It also gave a remaining activity at 10 µM ([7]; batch_name=ASAP-0008674-002) of 107%, a remaining activity at 10 µM ([8]; batch_name=ASAP-0008674-002) of 123% and a remaining activity at 10 µM ([9]; batch_name=ASAP-0008674-002) of 112%. The remaining activity at 10 µM ([10]; batch_name=ASAP-0008674-002) was 97%, the remaining activity at 10 µM ([11]; batch_name=ASAP-0008674-002) was 100% and the remaining activity at 10 µM ([12]; batch_name=ASAP-0008674-002) was 126%. It also gave a remaining activity at 10 µM ([13]; batch_name=ASAP-0008674-002) of 107%.
`CC(C)[C@H](Nc1ncnc2[nH]c(-c3cnn(C)c3C#N)cc12)c1ccc2c(n1)OCCO2` [ASAP-0010715] showed a remaining activity at 10 µM ([1]; batch_name=ASAP-0010715-002) of 98%, a remaining activity at 10 µM ([2]; batch_name=ASAP-0010715-002) of 70% and a remaining activity at 10 µM ([3]; batch_name=ASAP-0010715-002) of 104%. For the same molecule, the remaining activity at 10 µM ([4]; batch_name=ASAP-0010715-002) was 66%, the remaining activity at 10 µM ([5]; batch_name=ASAP-0010715-002) was 115% and the remaining activity at 10 µM ([6]; batch_name=ASAP-0010715-002) was 79%. For the same molecule, the remaining activity at 10 µM ([7]; batch_name=ASAP-0010715-002) was 99%, the remaining activity at 10 µM ([8]; batch_name=ASAP-0010715-002) was 130% and the remaining activity at 10 µM ([9]; batch_name=ASAP-0010715-002) was 102%. For the same molecule, the remaining activity at 10 µM ([10]; batch_name=ASAP-0010715-002) was 100%, the remaining activity at 10 µM ([11]; batch_name=ASAP-0010715-002) was 111% and the remaining activity at 10 µM ([12]; batch_name=ASAP-0010715-002) was 120%. The remaining activity at 10 µM ([13]; batch_name=ASAP-0010715-002) was 97%.
For `CC(C)[C@@H](Nc1ncnc2[nH]c(-c3cnn(C)c3C#N)cc12)c1ccc2c(n1)OCCO2` [ASAP-0010716], the remaining activity at 10 µM ([1]; batch_name=ASAP-0010716-002) was 101%, the remaining activity at 10 µM ([2]; batch_name=ASAP-0010716-002) was 55% and the remaining activity at 10 µM ([3]; batch_name=ASAP-0010716-002) was 102%. The remaining activity at 10 µM ([4]; batch_name=ASAP-0010716-002) was 61%, the remaining activity at 10 µM ([5]; batch_name=ASAP-0010716-002) was 107% and the remaining activity at 10 µM ([6]; batch_name=ASAP-0010716-002) was 96%. For the same molecule, the remaining activity at 10 µM ([7]; batch_name=ASAP-0010716-002) was 101%, the remaining activity at 10 µM ([8]; batch_name=ASAP-0010716-002) was 123% and the remaining activity at 10 µM ([9]; batch_name=ASAP-0010716-002) was 89%. It also gave a remaining activity at 10 µM ([10]; batch_name=ASAP-0010716-002) of 99%, a remaining activity at 10 µM ([11]; batch_name=ASAP-0010716-002) of 104% and a remaining activity at 10 µM ([12]; batch_name=ASAP-0010716-002) of 121%. For the same molecule, the remaining activity at 10 µM ([13]; batch_name=ASAP-0010716-002) was 90%.
